What all share (experiment): fluorogenic peptide-AMC hydrolysis assay
Type in all cases: biochemical

For assay [1], the target named is T1, recombinant Leishmania mexicana cysteine protease CPB2.8 (Leishmania mexicana, UniProt P36400).
T1 construct: gene LMCPB; recombinant; often used without C-terminal extension

Assay [2] deals with T2, human 20S proteasome, β2-subunits (trypsin-like activity) (Homo sapiens, UniProt Q99436).
T2 construct: gene PSMB7; commercial 20S core particle (Biomol GmbH); with Proteasome subunit beta type-3; Proteasome subunit beta type-5; Proteasome subunit beta type-6; Proteasome subunit beta type-1; Proteasome subunit beta type-2; Proteasome subunit beta type-4; Proteasome subunit alpha type-6; Proteasome subunit alpha type-2; Proteasome subunit alpha type-4; Proteasome subunit alpha type-7; Proteasome subunit alpha type-5; Proteasome subunit alpha type-1; Proteasome subunit alpha type-3
T2 sequence (Q99436 44-277): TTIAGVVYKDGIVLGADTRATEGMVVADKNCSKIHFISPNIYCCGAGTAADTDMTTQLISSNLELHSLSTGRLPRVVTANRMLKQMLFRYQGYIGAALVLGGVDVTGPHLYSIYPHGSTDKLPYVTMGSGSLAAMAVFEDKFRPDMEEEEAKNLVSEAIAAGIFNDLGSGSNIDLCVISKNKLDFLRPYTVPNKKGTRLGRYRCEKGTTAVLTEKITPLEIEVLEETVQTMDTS

The target in assay [3] is T3, human 20S proteasome, β5-subunits (chymotrypsin-like activity) (Homo sapiens, UniProt P28074).
T3 construct: gene PSMB5; commercial 20S core particle (Biomol GmbH); with Proteasome subunit beta type-1; Proteasome subunit beta type-6; Proteasome subunit beta type-7; Proteasome subunit beta type-3; Proteasome subunit beta type-2; Proteasome subunit beta type-4; Proteasome subunit alpha type-6; Proteasome subunit alpha type-2; Proteasome subunit alpha type-4; Proteasome subunit alpha type-7; Proteasome subunit alpha type-5; Proteasome subunit alpha type-1; Proteasome subunit alpha type-3
T3 sequence (P28074 60-263): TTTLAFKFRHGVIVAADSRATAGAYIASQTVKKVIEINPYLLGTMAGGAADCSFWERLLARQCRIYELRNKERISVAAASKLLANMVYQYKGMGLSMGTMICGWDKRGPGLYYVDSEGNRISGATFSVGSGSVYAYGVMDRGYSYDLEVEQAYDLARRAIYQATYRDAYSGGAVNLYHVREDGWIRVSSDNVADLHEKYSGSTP

T1 sequence (P36400 126-340): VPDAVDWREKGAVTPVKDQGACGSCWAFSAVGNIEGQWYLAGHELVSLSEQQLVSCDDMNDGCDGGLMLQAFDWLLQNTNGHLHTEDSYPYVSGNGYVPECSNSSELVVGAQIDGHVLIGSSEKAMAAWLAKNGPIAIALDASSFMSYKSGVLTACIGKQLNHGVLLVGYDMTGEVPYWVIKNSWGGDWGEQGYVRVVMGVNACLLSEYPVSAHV

Turning to `COc1cc2c(cc1O)[C@@H](C)N(C)CC2` [compound 2, N-methylisosalsoline], the inhibition (usually how much of the control response was suppressed) at 20 µM is about 14% in assay [1], about 20% in assay [2] and about 40% in assay [3].
